According to US20150105252A1, “SUBSTITUTED PYRAZOLES AS HERBICIDES” (E I DU PONT DE NEMOURS AND COMPANY, priority 2013, published 2015):

Assays:
waterhemp [1] = assay: Test C preemergence; format: in vivo, Amaranthus rudis
Procedure, shortened: (§1)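 In this greenhouse assay, seeded soil (loam plus sand) or emerged seedlings in peat-vermiculite medium were treated with formulated compound. Roughly two weeks later (13–15 days), each species was scored visually relative to controls, from 0 for no effect to 100 for complete control.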

foxtail, giant [2] = assay: Test C postemergence; format: in vivo, Setaria faberii; conditions: for Plant response rating (scale of 0 to 100 where 0 is no effect and 100 is complete control), Foxtail, Giant: Postemergence, 31 g ai/ha, visually evaluated after 13 to 15 days; for Foxtail, Giant plant response rating / Plant response rating, Foxtail, Giant: postemergence; for Foxtail, Giant plant response rating: 62 g ai/ha, scale 0 to 100
Procedure, shortened: as §1

johnsongrass = assay: Test C postemergence; format: in vivo, Sorghum halepense; conditions: for Plant response rating (scale of 0 to 100 where 0 is no effect and 100 is complete control), Johnsongrass: Postemergence, 31 g ai/ha, visually evaluated after 13 to 15 days; for Johnsongrass plant response rating / Plant response rating, Johnsongrass: postemergence; for Johnsongrass plant response rating: 62 g ai/ha, scale 0 to 100
Procedure, shortened: as §1

foxtail, giant [3] = assay: Test A postemergence; format: in vivo, Setaria faberii; conditions: Postemergence
Procedure, shortened: (§2)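 Seeds were sown in a loam soil–sand blend and given a directed soil spray preemergence; postemergence plants at 2–10 cm, one- to two-leaf stage, were sprayed with compound in non-phytotoxic solvent with surfactant. After about 10 days in a greenhouse, injury was visually rated against untreated controls (0 = no effect, 100 = complete control).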

morningglory = assay: Test A postemergence; format: in vivo, Ipomoea spp.; conditions: Postemergence
Procedure, shortened: as §2

foxtail, giant [4] = assay: Test A preemergence; format: in vivo, Setaria faberii; conditions: preemergence; for Foxtail, Giant plant response rating (0 to 100 scale): 125 g ai/ha, visual injury approx. 10 days after treatment; for Foxtail, Giant plant response rating: 500 g ai/ha, visual injury after approx. 10 days, 0 to 100 scale (0 no effect, 100 complete control)
Procedure, shortened: as §2

ducksalad = assay: Test B flood; format: in vivo, Heteranthera limosa; conditions: 250 g ai/ha, visual rating on 0 to 100 scale (0 no effect, 100 complete control), 13 to 15 days
Procedure, shortened: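 2-leaf plants; pots flooded 3 cm over soil; compound added to paddy water, depth kept constant. Greenhouse 13–15 d. Visual rating vs controls, 0–100 scale (100 = complete control); dash = no result.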

foxtail, giant [5] = assay: Test C preemergence; format: in vivo, Setaria faberii
Procedure, shortened: as §1

chickweed = assay: Test C postemergence; format: in vivo, Stellaria media; conditions: for Plant response rating (scale of 0 to 100 where 0 is no effect and 100 is complete control), Chickweed: Postemergence, 31 g ai/ha, visually evaluated after 13 to 15 days; for Chickweed plant response rating / Plant response rating, Chickweed: postemergence; for Chickweed plant response rating: 62 g ai/ha, scale 0 to 100
Procedure, shortened: as §1

crabgrass, large = assay: Test C preemergence; format: in vivo, Digitaria sanguinalis
Procedure, shortened: as §1

waterhemp [6] = assay: Test C postemergence; format: in vivo, Amaranthus rudis; conditions: postemergence; for Plant response rating, Waterhemp: 250 g ai/ha, scale 0 to 100 (0 no effect, 100 complete control); for Waterhemp plant response rating: scale 0 to 100
Procedure, shortened: as §1

oat, wild = assay: Test C postemergence; format: in vivo, Avena fatua; conditions: for Plant response rating (scale of 0 to 100 where 0 is no effect and 100 is complete control), Oat, Wild: Postemergence, 31 g ai/ha, visually evaluated after 13 to 15 days; for Oat, Wild plant response rating / Plant response rating, Oat, Wild: postemergence; for Oat, Wild plant response rating: 62 g ai/ha, scale 0 to 100
Procedure, shortened: as §1

galium = assay: Test C postemergence; format: in vivo, Galium aparine; conditions: for Plant response rating (scale of 0 to 100 where 0 is no effect and 100 is complete control), Galium: Postemergence, 31 g ai/ha, visually evaluated after 13 to 15 days; for Galium plant response rating / Plant response rating, Galium: postemergence; for Galium plant response rating: 62 g ai/ha, scale 0 to 100
Procedure, shortened: as §1

[7] = Preemergence, rate head not shown (block before 16 g ai/ha), scale 0 to 100
[8] = preemergence, 62 g ai/ha, scale 0 to 100 (0 no effect, 100 complete control), 13 to 15 days
[9] = preemergence, 125 g ai/ha, 13 to 15 days, scale 0 to 100, 0 = no effect, 100 = complete control
[10] = preemergence, 250 g ai/ha, scale 0 to 100, 0 is no effect, 100 is complete control
[11] = 250 g ai/ha, scale 0 to 100 (0 no effect, 100 complete control)
[12] = 125 g ai/ha, scale 0 to 100, 0 no effect, 100 complete control
[13] = 125 g ai/ha, 0 to 100 scale, 0 no effect, 100 complete control
[14] = 500 g ai/ha, 0 to 100 scale (0 no effect, 100 complete control)

## CCc1cc(C(=O)NCC(F)(F)F)nn1Cc1ccnc(Br)c1 [Compound 224]
Waterhemp [1]; [7]
  Plant response rating, Waterhemp: 100
Waterhemp [1]; [8]
  Waterhemp plant response rating: 100
Waterhemp [1]; [9]
  Plant response rating, Waterhemp: 100
Waterhemp [1]; [10]
  Waterhemp plant response rating: 100
foxtail, giant [2]
  Plant response rating (scale of 0 to 100 where 0 is no effect and 100 is complete control), Foxtail, Giant: 5
  Foxtail, Giant plant response rating: 5
foxtail, giant [2]; [11]
  Plant response rating, Foxtail, Giant: 5
foxtail, giant [2]; [12]
  Plant response rating, Foxtail, Giant: 5
johnsongrass
  Plant response rating (scale of 0 to 100 where 0 is no effect and 100 is complete control), Johnsongrass: 20
  Johnsongrass plant response rating: 5
johnsongrass; [11]
  Plant response rating, Johnsongrass: 5
johnsongrass; [12]
  Plant response rating, Johnsongrass: 5
foxtail, giant [3]; [13]
  Foxtail, Giant plant response rating: 90
foxtail, giant [3]; [14]
  Foxtail, Giant plant response rating: 100
morningglory; [13]
  Morningglory plant response rating: 30
morningglory; [14]
  Morningglory plant response rating: 100
foxtail, giant [4]
  Foxtail, Giant plant response rating (0 to 100 scale): 100
  Foxtail, Giant plant response rating: 100
ducksalad
  Plant response rating, Ducksalad: 75
foxtail, giant [5]; [7]
  Plant response rating, Foxtail, Giant: 95
foxtail, giant [5]; [8]
  Foxtail, Giant plant response rating: 100
foxtail, giant [5]; [9]
  Plant response rating, Foxtail, Giant: 100
foxtail, giant [5]; [10]
  Foxtail, Giant plant response rating: 100
chickweed
  Plant response rating (scale of 0 to 100 where 0 is no effect and 100 is complete control), Chickweed: 50
  Chickweed plant response rating: 55
chickweed; [11]
  Plant response rating, Chickweed: 90
chickweed; [12]
  Plant response rating, Chickweed: 55
crabgrass, large; [7]
  Plant response rating, Crabgrass, Large: 100
crabgrass, large; [8]
  Crabgrass, Large plant response rating: 100
crabgrass, large; [9]
  Plant response rating, Crabgrass, Large: 100
crabgrass, large; [10]
  Crabgrass, Large plant response rating: 100
Waterhemp [6]
  Plant response rating, Waterhemp: 45
  Waterhemp plant response rating: 50
oat, wild
  Plant response rating (scale of 0 to 100 where 0 is no effect and 100 is complete control), Oat, Wild: 5
  Oat, Wild plant response rating: 5
oat, wild; [11]
  Plant response rating, Oat, Wild: 10
oat, wild; [12]
  Plant response rating, Oat, Wild: 10
galium
  Plant response rating (scale of 0 to 100 where 0 is no effect and 100 is complete control), Galium: 50
  Galium plant response rating: 55
galium; [11]
  Plant response rating, Galium: 90
galium; [12]
  Plant response rating, Galium: 40

## CCc1cc(C(=O)NC2CC2)nn1Cc1ccnc(Br)c1 [Compound 220]
Waterhemp [1]; [7]
  Plant response rating, Waterhemp: 75
Waterhemp [1]; [8]
  Waterhemp plant response rating: 95
Waterhemp [1]; [9]
  Plant response rating, Waterhemp: 100
Waterhemp [1]; [10]
  Waterhemp plant response rating: 100
foxtail, giant [2]
  Plant response rating (scale of 0 to 100 where 0 is no effect and 100 is complete control), Foxtail, Giant: 0
  Foxtail, Giant plant response rating: 5
foxtail, giant [2]; [11]
  Plant response rating, Foxtail, Giant: 5
foxtail, giant [2]; [12]
  Plant response rating, Foxtail, Giant: 5
johnsongrass
  Plant response rating (scale of 0 to 100 where 0 is no effect and 100 is complete control), Johnsongrass: 0
  Johnsongrass plant response rating: 0
johnsongrass; [11]
  Plant response rating, Johnsongrass: 25
johnsongrass; [12]
  Plant response rating, Johnsongrass: 20
foxtail, giant [3]; [13]
  Foxtail, Giant plant response rating: 90
foxtail, giant [3]; [14]
  Foxtail, Giant plant response rating: 100
morningglory; [13]
  Morningglory plant response rating: 50
morningglory; [14]
  Morningglory plant response rating: 100
foxtail, giant [4]
  Foxtail, Giant plant response rating (0 to 100 scale): 100
  Foxtail, Giant plant response rating: 100
ducksalad
  Plant response rating, Ducksalad: 65
foxtail, giant [5]; [7]
  Plant response rating, Foxtail, Giant: 10
foxtail, giant [5]; [8]
  Foxtail, Giant plant response rating: 75
foxtail, giant [5]; [9]
  Plant response rating, Foxtail, Giant: 100
foxtail, giant [5]; [10]
  Foxtail, Giant plant response rating: 100
chickweed
  Plant response rating (scale of 0 to 100 where 0 is no effect and 100 is complete control), Chickweed: 50
  Chickweed plant response rating: 55
chickweed; [11]
  Plant response rating, Chickweed: 80
chickweed; [12]
  Plant response rating, Chickweed: 60
crabgrass, large; [7]
  Plant response rating, Crabgrass, Large: 95
crabgrass, large; [8]
  Crabgrass, Large plant response rating: 100
crabgrass, large; [9]
  Plant response rating, Crabgrass, Large: 100
crabgrass, large; [10]
  Crabgrass, Large plant response rating: 100
Waterhemp [6]
  Plant response rating, Waterhemp: 45
  Waterhemp plant response rating: 45
oat, wild
  Plant response rating (scale of 0 to 100 where 0 is no effect and 100 is complete control), Oat, Wild: 0
  Oat, Wild plant response rating: 5
oat, wild; [11]
  Plant response rating, Oat, Wild: 15
oat, wild; [12]
  Plant response rating, Oat, Wild: 10
galium
  Plant response rating (scale of 0 to 100 where 0 is no effect and 100 is complete control), Galium: 50
  Galium plant response rating: 40
galium; [11]
  Plant response rating, Galium: 80
galium; [12]
  Plant response rating, Galium: 60
